# In patent publication US20110144079A1, “ANTIMICROBIAL SYSTEM” (priority 2008, published 2011):
# Experiments:
# Assay type in all cases: cell-based
# P. aeruginosa PA01 = experiment: Biofilm assay (Calgary Biofilm Device), MBEC; conditions: for MBEC: P. aeruginosa PA01 24 h biofilm, 24 h challenge; for percent weight to volume of ionic liquid that corresponds to the MBEC value: P. aeruginosa PA01 biofilm
# Outline: (§1)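 24 h biofilms grown on Calgary Biofilm Device pegs in MHB from ~10^7 CFU ml^−1 inocula at 37 °C, 95% RH with gyrorotary shaking. Rinsed pegs challenged with serial dilutions of imidazolium salts in MHB; biofilms sonicated into recovery medium. MBEC = lowest concentration with no growth (turbidity, OD 550 nm) after 24 h, confirmed after a further 24 h.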
# E-MRSA 15 = experiment: Biofilm assay (Calgary Biofilm Device), MBEC; conditions: E-MRSA 15 24 h biofilm, 24 h challenge
# Outline: as §1
# P. mirabilis NCTC 12442 = experiment: Biofilm assay (Calgary Biofilm Device), MBEC; conditions: P. mirabilis NCTC 12442 24 h biofilm, 24 h challenge
# Outline: as §1
# S. aureus ATCC 29213 = experiment: Biofilm assay (Calgary Biofilm Device), MBEC; conditions: S. aureus ATCC 29213 24 h biofilm, 24 h challenge
# Outline: as §1
# [1] = test system: S. epidermidis ATCC 35984; experiment: Biofilm assay (Calgary Biofilm Device), MBEC; conditions: for MBEC: S. epidermidis ATCC 35984 24 h biofilm, 24 h challenge; for percent weight to volume of ionic liquid that corresponds to the MBEC value: S. epidermidis ATCC 35984 biofilm
# Outline: as §1
# K. aerogenes NCTC 7427 = experiment: Biofilm assay (Calgary Biofilm Device), MBEC; conditions: K. aerogenes NCTC 7427 24 h biofilm, 24 h challenge
# Outline: as §1
# B. cenocepacia J2315 = experiment: Biofilm assay (Calgary Biofilm Device), MBEC; conditions: B. cenocepacia J2315 24 h biofilm, 24 h challenge
# Outline: as §1
# [2] = test system: Methicillin Resistant Staphylococcus Aureus (MRSA); experiment: Kill kinetics, planktonic cell cultures
# Excerpt: (§2) The kill kinetic data is provided in terms of the measured colony forming units per millilitre (CFU/mL) values, and is also provided graphically in FIGS. 9-11.
# Escherichia Coli = experiment: Kill kinetics, planktonic cell cultures
# Excerpt: as §2
# [3] = test system: Staphylococcus Epidermidis; experiment: Kill kinetics, planktonic cell cultures
# Excerpt: as §2
smiles,measurement,setting,value
"CCCCCCCCCCn1cc[n+](C)c1.[Cl-] [C10MIMCl, 1-decyl-3-methylimidazolium chloride]",MBEC,P. aeruginosa PA01,2415 µM
same,percent weight to volume of ionic liquid that corresponds to the MBEC value,P. aeruginosa PA01,(0.063) % w/v
same,MBEC,E-MRSA 15,1207 µM
same,MBEC,P. mirabilis NCTC 12442,9659 µM
same,MBEC,S. aureus ATCC 29213,2415 µM
same,MBEC,[1],4829 µM
same,percent weight to volume of ionic liquid that corresponds to the MBEC value,[1],(0.125) % w/v
same,MBEC,K. aerogenes NCTC 7427,19318 µM
same,MBEC,B. cenocepacia J2315,19318 µM
same,colony forming units per millilitre,"[2]; 1379 μM, 0 Minutes",1.10 × 10^8 CFU/mL
same,colony forming units per millilitre,"[2]; 1379 μM, 5 Minutes",3.67 × 10^7 CFU/mL
same,colony forming units per millilitre,"[2]; 1379 μM, 10 Minutes",5.00 × 10^6 CFU/mL
same,colony forming units per millilitre,"[2]; 1379 μM, 20 Minutes",5.75 × 10^4 CFU/mL
same,colony forming units per millilitre,"[2]; 1379 μM, 30 Minutes",6.67 × 10^2 CFU/mL
same,colony forming units per millilitre,"[2]; 1379 μM, 45 Minutes",8.33 × 10^1 CFU/mL
same,colony forming units per millilitre,"Escherichia Coli; 2000 μM, 0 Minutes",6.25 × 10^7 CFU/mL
same,colony forming units per millilitre,"Escherichia Coli; 2000 μM, 5 Minutes",3.33 × 10^2 CFU/mL
same,colony forming units per millilitre,"Escherichia Coli; 2000 μM, 10 Minutes",0.00 CFU/mL
same,colony forming units per millilitre,"Escherichia Coli; 2000 μM, 20 Minutes",0.00 CFU/mL
same,colony forming units per millilitre,"Escherichia Coli; 2000 μM, 30 Minutes",0.00 CFU/mL
same,colony forming units per millilitre,"Escherichia Coli; 2000 μM, 45 Minutes",0.00 CFU/mL
same,colony forming units per millilitre,"[3]; 644 μM, 0 Minutes",8.96 × 10^7 CFU/mL
same,colony forming units per millilitre,"[3]; 644 μM, 5 Minutes",8.58 × 10^5 CFU/mL
same,colony forming units per millilitre,"[3]; 644 μM, 10 Minutes",6.92 × 10^4 CFU/mL
same,colony forming units per millilitre,"[3]; 644 μM, 20 Minutes",1.06 × 10^4 CFU/mL
same,colony forming units per millilitre,"[3]; 644 μM, 30 Minutes",2.42 × 10^3 CFU/mL
same,colony forming units per millilitre,"[3]; 644 μM, 45 Minutes",9.17 × 10^2 CFU/mL
"CCCCCCCCCCCCn1cc[n+](C)c1.[Cl-] [C12MIMCl, 1-dodecyl-3-methylimidazolium chloride]",MBEC,P. aeruginosa PA01,1089 µM
same,percent weight to volume of ionic liquid that corresponds to the MBEC value,P. aeruginosa PA01,(0.031) % w/v
same,MBEC,E-MRSA 15,272 µM
same,MBEC,P. mirabilis NCTC 12442,4357 µM
same,MBEC,S. aureus ATCC 29213,272 µM
same,MBEC,[1],272 µM
same,percent weight to volume of ionic liquid that corresponds to the MBEC value,[1],(0.008) % w/v
same,MBEC,K. aerogenes NCTC 7427,2179 µM
same,MBEC,B. cenocepacia J2315,2179 µM
same,colony forming units per millilitre,"[2]; 290 μM, 0 Minutes",2.08 × 10^8 CFU/mL
same,colony forming units per millilitre,"[2]; 290 μM, 5 Minutes",2.75 × 10^5 CFU/mL
same,colony forming units per millilitre,"[2]; 290 μM, 10 Minutes",0.00 CFU/mL
same,colony forming units per millilitre,"[2]; 290 μM, 20 Minutes",0.00 CFU/mL
same,colony forming units per millilitre,"[2]; 290 μM, 30 Minutes",0.00 CFU/mL
same,colony forming units per millilitre,"[2]; 290 μM, 45 Minutes",0.00 CFU/mL
same,colony forming units per millilitre,"Escherichia Coli; 871 μM, 0 Minutes",1.13 × 10^8 CFU/mL
same,colony forming units per millilitre,"Escherichia Coli; 871 μM, 5 Minutes",0.00 CFU/mL
same,colony forming units per millilitre,"Escherichia Coli; 871 μM, 10 Minutes",0.00 CFU/mL
same,colony forming units per millilitre,"Escherichia Coli; 871 μM, 20 Minutes",0.00 CFU/mL
same,colony forming units per millilitre,"Escherichia Coli; 871 μM, 30 Minutes",0.00 CFU/mL
same,colony forming units per millilitre,"Escherichia Coli; 871 μM, 45 Minutes",0.00 CFU/mL
same,colony forming units per millilitre,"[3]; 145 μM, 0 Minutes",6.25 × 10^7 CFU/mL
same,colony forming units per millilitre,"[3]; 145 μM, 5 Minutes",1.67 × 10^2 CFU/mL
same,colony forming units per millilitre,"[3]; 145 μM, 10 Minutes",0.00 CFU/mL
same,colony forming units per millilitre,"[3]; 145 μM, 20 Minutes",0.00 CFU/mL
same,colony forming units per millilitre,"[3]; 145 μM, 30 Minutes",0.00 CFU/mL
same,colony forming units per millilitre,"[3]; 145 μM, 45 Minutes",0.00 CFU/mL
"CCCCCCCCCCCCCCn1cc[n+](C)c1.[Cl-] [C14MIMCl, 1-tetradecyl-3-methylimidazolium chloride]",MBEC,P. aeruginosa PA01,496 µM
same,percent weight to volume of ionic liquid that corresponds to the MBEC value,P. aeruginosa PA01,(0.016 % w/v
same,MBEC,E-MRSA 15,248 µM
same,MBEC,P. mirabilis NCTC 12442,1984 µM
same,MBEC,S. aureus ATCC 29213,124 µM
same,MBEC,[1],124 µM
same,percent weight to volume of ionic liquid that corresponds to the MBEC value,[1],(0.004 % w/v
same,MBEC,K. aerogenes NCTC 7427,248 µM
same,MBEC,B. cenocepacia J2315,496 µM
same,colony forming units per millilitre,"[2]; 40 μM, 0 Minutes",1.52 × 10^8 CFU/mL
same,colony forming units per millilitre,"[2]; 40 μM, 5 Minutes",1.78 × 10^5 CFU/mL
same,colony forming units per millilitre,"[2]; 40 μM, 10 Minutes",2.75 × 10^3 CFU/mL
same,colony forming units per millilitre,"[2]; 40 μM, 20 Minutes",3.33 × 10^2 CFU/mL
same,colony forming units per millilitre,"[2]; 40 μM, 30 Minutes",0.00 CFU/mL
same,colony forming units per millilitre,"[2]; 40 μM, 45 Minutes",0.00 CFU/mL
same,colony forming units per millilitre,"Escherichia Coli; 265 μM, 0 Minutes",1.67 × 10^8 CFU/mL
same,colony forming units per millilitre,"Escherichia Coli; 265 μM, 5 Minutes",1.07 × 10^4 CFU/mL
same,colony forming units per millilitre,"Escherichia Coli; 265 μM, 10 Minutes",2.33 × 10^3 CFU/mL
same,colony forming units per millilitre,"Escherichia Coli; 265 μM, 20 Minutes",0.00 CFU/mL
same,colony forming units per millilitre,"Escherichia Coli; 265 μM, 30 Minutes",0.00 CFU/mL
same,colony forming units per millilitre,"Escherichia Coli; 265 μM, 45 Minutes",0.00 CFU/mL
same,colony forming units per millilitre,"[3]; 40 μM, 0 Minutes",8.67 × 10^7 CFU/mL
same,colony forming units per millilitre,"[3]; 40 μM, 5 Minutes",0.00 CFU/mL
same,colony forming units per millilitre,"[3]; 40 μM, 10 Minutes",0.00 CFU/mL
same,colony forming units per millilitre,"[3]; 40 μM, 20 Minutes",0.00 CFU/mL
same,colony forming units per millilitre,"[3]; 40 μM, 30 Minutes",0.00 CFU/mL
same,colony forming units per millilitre,"[3]; 40 μM, 45 Minutes",0.00 CFU/mL
